Molecular target: juvenile hormone esterase (Trichoplusia ni)
Experiment: In vitro inhibition of Trichoplusia Juvenile Hormone Esterase.

| SMILES | IC50 [µM] |
| --- | --- |
| CCCCCCCCC(=O)C(F)F | 10 |
| CCCCCCCCC(=O)C(F)(F)F | 6.76 |
| CCCCCCOCC(C)=O | 490 |
| CCCCCC[Se](=O)CC(=O)C(F)(F)F (configuration not stated) | 0.000537 |
| CCCCCCC=CC(=O)C(F)(F)F | 79.4 |

Further lines, results first:

| IC50 [µM] | SMILES |
| --- | --- |
| 0.398 | CCCCCCC#CC(=O)C(F)(F)F |
| 0.0832 | CCCCCCOCC(=O)C(F)(F)F |

From BindingDB's records for doi:10.1021/jm020072w (University of California, 2002)
